Source: patent US12102648B2, “Orally-bioavailable nucleoside analogs” (priority 2021, dated 2024)
Like-named read-outs stand apart in the source and are kept apart here.

Experiment: in vitro
Type: in vitro ADME
Conditions: human
Summary of the method: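 Caco-2 monolayers cultured 19 days on inserts (TEER >600 […]); bidirectional A-to-B and B-to-A transport at 37° C over 90 min, samples quantified by LC/MS/MS. Papp, efflux ratio and recovery calculated; ER >2 flags potential efflux substrates.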

[1] = Caco-2 monolayer, apical to basolateral, 90-minute incubation, read-out: Papp, A-B
[2] = Caco-2 monolayer, basolateral to apical, 90-minute incubation, read-out: Papp, B-A
[3] = Caco-2 monolayer, ER>2 indicates potential efflux transporter substrate, read-out: ER (efflux ratio)

SMILES | Papp A→B at 90 min (Caco-2) | Papp B→A at 90 min (Caco-2) | efflux ratio at 90 min (Caco-2) | Papp A→B at 90 min [1] | Papp B→A at 90 min [2] | efflux ratio at 90 min [3]
N#C[C@@]1(c2ccc3c(N)ncnn23)O[C@H](COP(=O)(O)OCCCCCCCCCCCCCCCC(=O)O)[C@@H](O)[C@H]1O [Compound 8, 16-(((((2R,3S,4R,5R)-5-(4-aminopyrrolo[2,1-f][1,2,4]triazin-7-yl)-5-cyano-3,4-dihydroxytetrahydrofuran-2-yl)methoxy)(hydroxy)phosphoryl)oxy)hexadecanoic acid] | 0.2 ×10⁻⁶ cm/s | 0.5 ×10⁻⁶ cm/s | 2.4 |  |  | 
N#C[C@@]1(c2ccc3c(N)ncnn23)O[C@H](COC(=O)CC2(N)CCCCC2)[C@@H](O)[C@H]1O [Compound 286, ((2R,3S,4R,5R)-5-(4-aminopyrrolo[2,1-f][1,2,4]triazin-7-yl)-5-cyano-3,4-dihydroxytetrahydrofuran-2-yl)methyl 2-(1-aminocyclohexyl)acetate] | 0.01 ×10⁻⁶ cm/s | 0.4 ×10⁻⁶ cm/s | 67 |  |  | 
N#C[C@@]1(c2ccc3c(NC(=O)c4ccccc4)ncnn23)O[C@H](CO)[C@@H](OC(=O)CC2CCCCC2)[C@H]1O [Compound 342, (2R,3S,4R,5R)-5-(4-benzamidopyrrolo[2,1-f][1,2,4]triazin-7-yl)-5-cyano-4-hydroxy-2-(hydroxymethyl)tetrahydrofuran-3-yl 2-cyclohexylacetate] | 1.1 ×10⁻⁶ cm/s | 0.39 ×10⁻⁶ cm/s | 0.34 |  |  | 
Cc1oc(=O)oc1COC(=O)Nc1ncnn2c([C@]3(C#N)O[C@H](COC(=O)Cc4ccccc4)[C@@H](OC(=O)[C@@H](N)C(C)C)[C@H]3O)ccc12 [Compound 383, (2R,3S,4R,5R)-5-cyano-4-hydroxy-5-(4-((((5-methyl-2-oxo-1,3-dioxol-4-yl)methoxy)carbonyl)amino)pyrrolo[2,1-f][1,2,4]triazin-7-yl)-2-((2-phenylacetoxy)methyl)tetrahydrofuran-3-yl L-valinate] |  |  |  | < 1 ×10⁻⁶ cm/s | < 1 ×10⁻⁶ cm/s | 
N#C[C@@]1(c2ccc3c(N)ncnn23)O[C@H](COC(=O)CC23CC4CC(CC(C4)C2)C3)[C@@H](O)[C@H]1O [Compound 263, ((2R,3S,4R,5R)-5-(4-aminopyrrolo[2,1-f][1,2,4]triazin-7-yl)-5-cyano-3,4-dihydroxytetrahydrofuran-2-yl)methyl 2-((3R,5R,7R)-adamantan-1-yl)acetate] | 13 ×10⁻⁶ cm/s | 19 ×10⁻⁶ cm/s | 1.5 |  |  | 
CNc1nc(N)nc2c1ncn2[C@@H]1O[C@H](COC(=O)C(C)C)[C@@H](OC(=O)C(C)C)[C@@]1(C)F [Compound 227, (2R,3R,4R,5R)-5-(2-amino-6-(methylamino)-9H-purin-9-yl)-4-fluoro-2-((isobutyryloxy)methyl)-4-methyltetrahydrofuran-3-yl isobutyrate] | 8.5 ×10⁻⁶ cm/s | 3.2 ×10⁻⁶ cm/s | 0.4 |  |  | 
N#C[C@@]1(c2ccc3c(NC(=O)c4ccccc4)ncnn23)O[C@H](COC(=O)Cc2ccccc2)[C@@H](O)[C@H]1O [Compound 105, ((2R,3S,4R,5R)-5-(4-benzamidopyrrolo[2,1-f][1,2,4]triazin-7-yl)-5-cyano-3,4-dihydroxytetrahydrofuran-2-yl)methyl 2-phenylacetate] |  |  |  | 0.77 ×10⁻⁶ cm/s | 1.4 ×10⁻⁶ cm/s | 1.8
N#C[C@@]1(c2ccc3c(N)ncnn23)O[C@H](COC(=O)Cc2ccccc2)[C@@H](O)[C@H]1O [Compound 12, ((2R,3S,4R,5R)-5-(4-aminopyrrolo[2,1-f][1,2,4]triazin-7-yl)-5-cyano-3,4-dihydroxytetrahydrofuran-2-yl)methyl 2-phenylacetate] |  |  |  | 3 ×10⁻⁶ cm/s | 8.9 ×10⁻⁶ cm/s | 3
CC(=O)O[C@H]1[C@@H](OC(C)=O)[C@](C#N)(c2ccc3c(N)ncnn23)O[C@@H]1COC(=O)C(C)(C)C1CCCCC1 [Compound 412, (2R,3R,4R,5R)-2-(4-aminopyrrolo[2,1-f][1,2,4]triazin-7-yl)-2-cyano-5-(((2-cyclohexyl-2-methylpropanoyl)oxy)methyl)tetrahydrofuran-3,4-diyl diacetate] | 5.1 ×10⁻⁶ cm/s | 0.9 ×10⁻⁶ cm/s | 0.2 |  |  | 
CC(C)C(=O)OC[C@H]1O[C@@](C#N)(c2ccc3c(N)ncnn23)[C@H](O)[C@@H]1O [Compound 14, ((2R,3S,4R,5R)-5-(4-aminopyrrolo[2,1-f][1,2,4]triazin-7-yl)-5-cyano-3,4-dihydroxytetrahydrofuran-2-yl)methyl isobutyrate] | 2.3 ×10⁻⁶ cm/s | 2.2 ×10⁻⁶ cm/s | 1 |  |  | 
CCCCC(=O)Nc1ncnn2c([C@]3(C#N)O[C@H](CO)[C@@H](O)[C@H]3O)ccc12 [Compound 264, N-(7-((2R,3R,4S,5R)-2-cyano-3,4-dihydroxy-5-(hydroxymethyl)tetrahydrofuran-2-yl)pyrrolo[2,1-f][1,2,4]triazin-4-yl)pentanamide] | 0.03 ×10⁻⁶ cm/s | 0.53 ×10⁻⁶ cm/s | 20 |  |  | 
CC(C)C(=O)Nc1ncnn2c([C@]3(C#N)O[C@H](COC(=O)Cc4ccccc4)[C@@H](OC(=O)[C@@H](N)C(C)C)[C@H]3O)ccc12 [Compound 347, (2R,3S,4R,5R)-5-cyano-4-hydroxy-5-(4-isobutyramidopyrrolo[2,1-f][1,2,4]triazin-7-yl)-2-((2-phenylacetoxy)methyl)tetrahydrofuran-3-yl L-valinate] |  |  |  | 7 ×10⁻⁶ cm/s | 17 ×10⁻⁶ cm/s | 2.4
CC(C)[C@H](N)C(=O)O[C@H]1[C@@H](O)[C@](C#N)(c2ccc3c(NC(=O)OCOC(=O)C(C)(C)C)ncnn23)O[C@@H]1COC(=O)CC1CCCCC1 [Compound 361, (2R,3S,4R,5R)-5-cyano-2-((2-cyclohexylacetoxy)methyl)-4-hydroxy-5-(4-((((pivaloyloxy)methoxy)carbonyl)amino)pyrrolo[2,1-f][1,2,4]triazin-7-yl)tetrahydrofuran-3-yl L-valinate] | 0.15 ×10⁻⁶ cm/s | 0.05 ×10⁻⁶ cm/s | 0.33 |  |  | 
CCCCCOC(=O)Nc1ncnn2c([C@]3(C#N)O[C@H](COC(=O)C(C)C)[C@@H](O)[C@H]3O)ccc12 [Compound 92, ((2R,3S,4R,5R)-5-cyano-3,4-dihydroxy-5-(4-(((pentyloxy)carbonyl)amino)pyrrolo[2,1-f][1,2,4]triazin-7-yl)tetrahydrofuran-2-yl)methyl isobutyrate] | 2.7 ×10⁻⁶ cm/s | 4.6 ×10⁻⁶ cm/s | 1.7 |  |  | 
CCCCOC(=O)Nc1ncnn2c([C@]3(C#N)O[C@H](COC(=O)C(C)(C)C4CCCCC4)[C@@H](O)[C@H]3O)ccc12 [Compound 379, ((2R,3S,4R,5R)-5-(4-((butoxycarbonyl)amino)pyrrolo[2,1-f][1,2,4]triazin-7-yl)-5-cyano-3,4-dihydroxytetrahydrofuran-2-yl)methyl 2-cyclohexyl-2-methylpropanoate] | 1.6 ×10⁻⁶ cm/s | 2.5 ×10⁻⁶ cm/s | 1.6 |  |  | 
CCC(=O)OC[C@H]1O[C@@](C#N)(c2ccc3c(N)ncnn23)[C@H](O)[C@@H]1OC(=O)CC1CCCCC1 [Compound 66, [(2R,3S,4R,5R)-5-{4-aminopyrrolo[2,1-f][1,2,4]triazin-7-yl}-5-cyano-3-[(2-cyclohexylacetyl)oxy]-4-hydroxyoxolan-2-yl]methyl propanoate] | 2.7 ×10⁻⁶ cm/s | 0.36 ×10⁻⁶ cm/s | 0.13 |  |  | 
CCC(=O)O[C@H]1[C@@H](O)[C@](C#N)(c2ccc3c(NC(=O)OCOC(=O)C(C)(C)C)ncnn23)O[C@@H]1COC(=O)[C@@H](N)C(C)C [Compound 365, ((2R,3S,4R,5R)-5-cyano-4-hydroxy-5-(4-((((pivaloyloxy)methoxy)carbonyl)amino)pyrrolo[2,1-f][1,2,4]triazin-7-yl)-3-(propionyloxy)tetrahydrofuran-2-yl)methyl L-valinate] | 1.5 ×10⁻⁶ cm/s | 4.1 ×10⁻⁶ cm/s | 2.8 |  |  | 
N#C[C@@]1(c2ccc3c(N)ncnn23)O[C@H](COC(=O)CC2CCC(C(F)(F)F)CC2)[C@@H](O)[C@H]1O (stereo partly drawn) [Compound 270, ((2R,3S,4R,5R)-5-(4-aminopyrrolo[2,1-f][1,2,4]triazin-7-yl)-5-cyano-3,4-dihydroxytetrahydrofuran-2-yl)methyl 2-(4-(trifluoromethyl)cyclohexyl)acetate] | 1.9 ×10⁻⁶ cm/s | 6.9 ×10⁻⁶ cm/s | 3.7 |  |  | 
CCCC(=O)Nc1ncnn2c([C@]3(C#N)O[C@H](COC(=O)[C@@H](N)C(C)C)[C@@H](OC(=O)CC)[C@H]3O)ccc12 [Compound 357, ((2R,3S,4R,5R)-5-(4-butyramidopyrrolo[2,1-f][1,2,4]triazin-7-yl)-5-cyano-4-hydroxy-3-(propionyloxy)tetrahydrofuran-2-yl)methyl L-valinate] | 3.1 ×10⁻⁶ cm/s | 6 ×10⁻⁶ cm/s | 1.9 |  |  | 
CN(C(=O)CC1CCCCC1)c1nc(N)nc2c1ncn2[C@@H]1O[C@H](COC(=O)CC2CCCCC2)[C@@H](O)[C@@]1(C)F [Compound 291, ((2R,3R,4R,5R)-5-(2-amino-6-(2-cyclohexyl-N-methylacetamido)-9H-purin-9-yl)-4-fluoro-3-hydroxy-4-methyltetrahydrofuran-2-yl)methyl 2-cyclohexylacetate] | 11 ×10⁻⁶ cm/s | 17 ×10⁻⁶ cm/s | 1.6 |  |  | 
CNc1nc(N)nc2c1ncn2[C@@H]1O[C@H](COC(C)=O)[C@@H](OC(=O)CC2CCCCC2)[C@@]1(C)F [Compound 194, (2R,3R,4R,5R)-2-(acetoxymethyl)-5-(2-amino-6-(methylamino)-9H-purin-9-yl)-4-fluoro-4-methyltetrahydrofuran-3-yl 2-cyclohexylacetate] | 12 ×10⁻⁶ cm/s | 2.1 ×10⁻⁶ cm/s | 0.18 |  |  | 
